The test system of experiment [1] is H929 human cancer cell lines. The experiment can be described thus: Cellular viability / proliferation (Cell TiterGlo, 72 h). It counts as cell-based. The gist of the method: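 Plating is at 1,000 cells/well in 10% FBS medium; after 24 h, compound is added as a 2-fold series starting at 50 μM with under 1% DMSO.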
Background: Cellular ATP, detected with luciferase, serves as a proxy for viable cell number.

For a further experiment, the target named is Mcl-1 (Homo sapiens (Human), UniProt Q07820). The experiment can be described thus: Fluorescence polarization anisotropy (FPA) competition assay, FITC-Bak or FITC-Bim BH3 peptide. It counts as binding. The conditions noted are these: read-out: Ki for Inhibition of Mcl-1 by FPA assay. (Fluorescence polarisation rises when a labelled molecule tumbles more slowly, as on binding a larger partner.)

[2] abbreviates: Homo sapiens, NCI-H929, 72 h, read-out: GI50 on cellular proliferation of H929 human cancer cell lines, H929 cells, 72 h, Cell TiterGlo, 10% FBS.

The Ki is a measure of affinity in units of concentration, obtained from inhibition or displacement.

Read-outs that look alike come from different tables or passages of the source.

Sequence of Mcl-1 (Q07820 172-327): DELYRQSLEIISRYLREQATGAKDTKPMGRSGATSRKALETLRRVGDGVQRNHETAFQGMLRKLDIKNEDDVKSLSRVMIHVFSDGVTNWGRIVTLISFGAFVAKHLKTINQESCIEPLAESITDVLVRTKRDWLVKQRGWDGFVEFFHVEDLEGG

As to `Cc1cc(N2C[C@@H](C)n3c(c(CCCOc4cc(C)c(Cl)c(C)c4)c4ccc(Cl)c(-c5c(C)nn(CCN6CCCC6)c5C)c43)C2=O)c2c(c1)cc(C(=O)O)n2C` [Example 463, (R)-7-(7-Chloro-10-(3-(4-chloro-3,5-dimethylphenoxy)propyl)-6-(3,5-dimethyl-1-(2-(pyrrolidin-1-yl)ethyl)-1H-pyrazol-4-yl)-4-methyl-1-oxo-3,4-dihydropyrazino[1,2-a]indol-2(1H)-yl)-1,5-dimethyl-1H-indole-2-carboxylic acid], the GI50 in experiment [1] (setting [2]) turned out to be 290 nM. At Mcl-1, the Ki turned out to be 2.1 nM.

`COc1ccnc(-c2ccc3c(c2)c(N2C[C@@H](C)n4c(c(CCCOc5cc(C)c(Cl)c(C)c5)c5ccc(Cl)c(-c6c(C)nn(C)c6C)c54)C2=O)cn3C)n1` [Example 464, (R)-7-Chloro-10-(3-(4-chloro-3,5-dimethylphenoxy)propyl)-2-(5-(4-methoxypyrimidin-2-yl)-1-methyl-1H-indol-3-yl)-4-methyl-6-(1,3,5-trimethyl-1H-pyrazol-4-yl)-3,4-dihydropyrazino[1,2-a]indol-1(2H)-one]: the GI50 in experiment [1] (setting [2]) was 480 nM. In addition, at Mcl-1, the Ki turned out to be 3.5 nM.

Turning to `COc1cnc(-c2ccc3c(c2)c(N2C[C@@H](C)n4c(c(CCCOc5cc(C)c(Cl)c(C)c5)c5ccc(Cl)c(-c6c(C)nn(C)c6C)c54)C2=O)cn3C)nc1` [Example 465, (R)-7-Chloro-10-(3-(4-chloro-3,5-dimethylphenoxy)propyl)-2-(5-(5-methoxypyrimidin-2-yl)-1-methyl-1H-indol-3-yl)-4-methyl-6-(1,3,5-trimethyl-1H-pyrazol-4-yl)-3,4-dihydropyrazino[1,2-a]indol-1(2H)-one], in experiment [1] (setting [2]), the GI50 is 690 nM. Also, the Ki on Mcl-1 turned out to be 1.5 nM.

Turning to `COc1ccc(N2C[C@@H](C)n3c(c(CCCOc4cc(C)c(Cl)c(C)c4)c4ccc(Cl)c(-c5c(C)nn(C)c5C)c43)C2=O)c2c1cc(C(N)=O)n2Cc1ccccn1` [Example 466, (R)-7-(7-Chloro-10-(3-(4-chloro-3,5-dimethylphenoxy)propyl)-4-methyl-1-oxo-6-(1,3,5-trimethyl-1H-pyrazol-4-yl)-3,4-dihydropyrazino[1,2-a]indol-2(1H)-yl)-4-methoxy-1-(pyridin-2-ylmethyl)-1H-indole-2-carboxamide], in experiment [1] (setting [2]), the GI50 amounted to 300 nM. Also, the Ki at Mcl-1 came to 1.8 nM.

In the case of `Cc1cc(OCCCc2c3n(c4c(-c5c(C)nn(C)c5C)c(Cl)ccc24)[C@H](C)CN(c2cccc4c(C(=O)O)cn(Cc5cccnc5)c24)C3=O)cc(C)c1Cl` [Example 467, (R)-7-(7-Chloro-10-(3-(4-chloro-3,5-dimethylphenoxy)propyl)-4-methyl-1-oxo-6-(1,3,5-trimethyl-1H-pyrazol-4-yl)-3,4-dihydropyrazino[1,2-a]indol-2(1H)-yl)-1-(pyridin-3-ylmethyl)-1H-indole-3-carboxylic acid], the GI50 in experiment [1] (setting [2]) turned out to be 1300 nM. The Ki on Mcl-1 came to 1.3 nM.

Regarding `Cc1cc(OCCCc2c3n(c4c(-c5c(C)nn(C)c5C)c(Cl)ccc24)[C@H](C)CN(c2cccc4c(C(=O)O)cn(Cc5ccccn5)c24)C3=O)cc(C)c1Cl` [Example 468, (R)-7-(7-Chloro-10-(3-(4-chloro-3,5-dimethylphenoxy)propyl)-4-methyl-1-oxo-6-(1,3,5-trimethyl-1H-pyrazol-4-yl)-3,4-dihydropyrazino[1,2-a]indol-2(1H)-yl)-1-(pyridin-2-ylmethyl)-1H-indole-3-carboxylic acid], in experiment [1] (setting [2]), the GI50 came to 260 nM. In addition, on Mcl-1, the Ki was less than 1 nM.

Regarding `Cc1cc(OCCCc2c3n(c4c(-c5c(C)nn(C)c5C)c(Cl)ccc24)[C@H](C)CN(c2cc(OC(F)(F)F)cc4cc(C(=O)O)[nH]c24)C3=O)cc(C)c1Cl` [Example 469, (R)-7-(7-Chloro-10-(3-(4-chloro-3,5-dimethylphenoxy)propyl)-4-methyl-1-oxo-6-(1,3,5-trimethyl-1H-pyrazol-4-yl)-3,4-dihydropyrazino[1,2-a]indol-2(1H)-yl)-5-(trifluoromethoxy)-1H-indole-2-carboxylic acid], the GI50 in experiment [1] (setting [2]) was found to be 3300 nM. Further, on Mcl-1, the Ki was 2.2 nM.

For the molecule `COCCn1c(C(=O)O)cc2cc(C)cc(N3C[C@@H](C)n4c(c(CCCOc5cc(C)c(Cl)c(C)c5)c5ccc(Cl)c(-c6c(C)nn(C)c6C)c54)C3=O)c21` [Example 470, (R)-7-(7-Chloro-10-(3-(4-chloro-3,5-dimethylphenoxy)propyl)-4-methyl-1-oxo-6-(1,3,5-trimethyl-1H-pyrazol-4-yl)-3,4-dihydropyrazino[1,2-a]indol-2(1H)-yl)-1-(2-methoxyethyl)-5-methyl-1H-indole-2-carboxylic acid], the GI50 in experiment [1] (setting [2]) was less than 200 nM. At Mcl-1, the Ki is less than 1 nM.

For the molecule `Cc1cc(OCCCc2c3n(c4c(-c5c(C)nn(C)c5C)c(Cl)ccc24)[C@H](C)CN(c2c[nH]c4ccc(-c5ncn(C)n5)cc24)C3=O)cc(C)c1Cl` [Example 471, (R)-7-chloro-10-(3-(4-chloro-3,5-dimethylphenoxy)propyl)-4-methyl-2-(5-(1-methyl-1H-1,2,4-triazol-3-yl)-1H-indol-3-yl)-6-(1,3,5-trimethyl-1H-pyrazol-4-yl)-3,4-dihydropyrazino[1,2-a]indol-1(2H)-one], the GI50 in experiment [1] (setting [2]) was 360 nM. The Ki on Mcl-1 was 2.3 nM.

As to `Cc1cc(OCCCc2c3n(c4c(-c5c(C)nn(C)c5C)c(Cl)ccc24)[C@H](C)CN(c2cccc4c(C(=O)O)cn(Cc5ccncc5)c24)C3=O)cc(C)c1Cl` [Example 472, (R)-7-(7-Chloro-10-(3-(4-chloro-3,5-dimethylphenoxy)propyl)-4-methyl-1-oxo-6-(1,3,5-trimethyl-1H-pyrazol-4-yl)-3,4-dihydropyrazino[1,2-a]indol-2(1H)-yl)-1-(pyridin-4-ylmethyl)-1H-indole-3-carboxylic acid], the GI50 in experiment [1] (setting [2]) was determined as 1700 nM. Moreover, the Ki on Mcl-1 was 1.2 nM.

Regarding `Cc1ccnc(Cn2c(C(=O)O)cc3cc(OC(F)(F)F)cc(N4C[C@@H](C)n5c(c(CCCOc6cc(C)c(Cl)c(C)c6)c6ccc(Cl)c(-c7c(C)nn(C)c7C)c65)C4=O)c32)c1` [Example 474, (R)-7-(7-Chloro-10-(3-(4-chloro-3,5-dimethylphenoxy)propyl)-4-methyl-1-oxo-6-(1,3,5-trimethyl-1H-pyrazol-4-yl)-3,4-dihydropyrazino[1,2-a]indol-2(1H)-yl)-1-((4-methylpyridin-2-yl)methyl)-5-(trifluoromethoxy)-1H-indole-2-carboxylic acid], the GI50 in experiment [1] (setting [2]) is 1200 nM. The Ki on Mcl-1 was found to be 17 nM.

On to `Cc1cc(OCCCc2c3n(c4c(-c5c(C)nn(C)c5C)c(Cl)ccc24)[C@H](C)CN(c2cn(C)c4ccc(-c5ncn(CC6COC6)n5)cc24)C3=O)cc(C)c1Cl` [Example 475, (R)-7-Chloro-10-(3-(4-chloro-3,5-dimethylphenoxy)propyl)-4-methyl-2-(1-methyl-5-(1-(oxetan-3-ylmethyl)-1H-1,2,4-triazol-3-yl)-1H-indol-3-yl)-6-(1,3,5-trimethyl-1H-pyrazol-4-yl)-3,4-dihydropyrazino[1,2-a]indol-1(2H)-one], for which the GI50 in experiment [1] (setting [2]) worked out at 250 nM. Further, the Ki at Mcl-1 came out at 7 nM.

Turning to “(R)-3-(7-chloro-10-(3-(4-chloro-3,5-dimethylphenoxy)propyl)-6-(3,5-dimethyl-1-((1-methylpiperidin-4-yl)methyl)-1H-pyrazol-4-yl)-4-methyl-1-oxo-3,4-dihydropyrazino[1,2-a]indol-2(1H)-yl)-1-methyl-1H-indole-5-carboxylic acid [Example 146]”, the GI50 in experiment [1] (H929 cells, 72 h, Cell TiterGlo, 10% FBS, read-out: GI50 on cellular proliferation of H929 human cancer cell lines) came to 2400 nM. Moreover, the Ki on Mcl-1 is 4 nM.

The values above are taken from patent US11596639B2, “Substituted indole Mcl-1 inhibitors” (Vanderbilt University, priority 2016, dated 2023).
